The record followed here is US10034738B2, “Cardiac tissue constructs and methods of fabrication thereof” (THE GOVERNING COUNCIL OF THE UNIVERSITY OF TORONTO, priority 2012, dated 2018).

Entries after “also recorded” stand apart in the source; their conditions may differ.

For assay [1], the system named is cardiac microwire. As to the kind of experiment: Optical mapping of transmembrane action potentials of cardiac microwire (voltage-sensitive dye). The assay is classed as cell-based, human. The note with it: relative to the baseline. The procedure: (§1) Using drugs of known effects, the cardiac microwire was perturbed and optically mapped their response (transmembrane AP and intracellular calcium transient) using voltage- and calcium-sensitive dyes, respectively.
For optical measurements, microtissues were stained with […] of Di-4-ANEPPS (Invitrogen, Carlsbad Calif.) voltage-sensitive dye for 20 minutes, followed by 3 washouts with fresh warm Tyrode's solution (Sigma-Aldrich) adjusted to pH 7.4. The temperature was kept constant at 37° C. using a block incubator. Dye fluorescence was recorded using a microscope mapping system (Ultima, Scimedia, Tokyo Japan). The system included a CMOS camera with a 1 cm sensor (100×100 pixel) attached to a custom-built microscope using PLAN APO objective and condensing lenses (Leica Microsystems GmbH, Wetzlar Germany), giving a magnification of 1.5×. The spatial resolution was 63 μm/pixel. The fluorescence was excited using a Xenon light source (Moritek Corp. Japan) and a 530 nm green filter (Semrock, Rochester N.Y.) and the emission signal was long pass filtered using a 610 nm red filter. Tissue constructs were point stimulated at 1000-ms cycle length using a bipolar electrode made with 2 fine silver wires (AWG#32) inserted in a large stainless steel needle mounted on a micromanipulator. Spontaneous tissue beating was also recorded, in addition to responses to frequency sweep from 1 to 5 Hz. Local activation times were measured at the peak of dF/dT for each pixel. Activation maps were constructed for a selected beat.
Conduction velocity was calculated at each location using activation times of 9 neighbouring sites. Conduction velocity values from all sites were used to calculate the average conduction velocity across the construct surface; minimum and maximum values were also noted. Phase contrast images of microtissue surfaces were taken prior to optical mapping, to correlate tissue architecture geometry with conduction velocity. Concentrations of drugs used applied as indicated. […]

Assay [2] has as its system cardiac microwire. The assay is described as follows: Optical mapping of intracellular calcium transients of cardiac microwire (calcium-sensitive dye). In kind it is cell-based, human. The protocol: as §1
Conduction velocity was calculated at each location using activation times of 9 neighbouring sites. Conduction velocity values from all sites were used to calculate the average conduction velocity across the construct surface; minimum and maximum values were also noted. Phase contrast images of microtissue surfaces were taken prior to optical mapping, to correlate tissue architecture geometry with conduction velocity. Concentrations of drugs used applied as indicated. Stock solutions were prepared as recommended by vendors: Epinephrine at 1:1000 (Hospira), Lidocaine at 1:1000 (Hospira), and Verapamil at 1:1000 (Sandoz).
In general terms: Calcium flux is commonly read through the fluorescence of an indicator in the cells.

The subject of assay [3] is cardiac tissue constructs. The note with it: relative to no-drug control, 15 minutes of incubation at 37 degrees Celsius, increasing concentrations.
Description: In the present example, microwells with ramped support structures having retaining structures provided thereon, as described above, were seeded at 0.1×10^6 cells per tissue in 2.0 mg/mL Collagen 1. Tissues remodeled over two weeks along with contractile force as measured using the microcantilevers in the system. After two weeks, tissues were introduced with drugs in 100% DMSO vehicle. Final concentrations applied to tissues were ensured to be less than 0.01% DMSO to ensure non-toxic effects. Concentrations were mixed separately in a 96 well plate and applied to the tissues. Measurements were taken after 15 minutes of incubation with the drug at 37 degrees Celsius.
Videos of approximately 10 seconds were recorded and analyzed offline using ImageJ for each condition. […] Contractile force assays were conducted after the contractile force was plateaued to ensure no changes in contractile force due to tissue remodeling.
Assay [4] concerns cardiac tissue constructs. The assay is described as follows: Preliminary growth factor screen, excitation threshold (ET) of cardiac tissue constructs. The note with it: compared to the control condition. In kind it is cell-based. The procedure:
Tissue function was established by measuring excitation threshold (ET), the minimum voltage required to pace the tissue simultaneously, and maximum capture rate (MCR), the maximum stimulation rate at which the construct can be induced to beat simultaneously, at 7 days after cell seeding. Tissue constructs or cardiomyocyte aggregates were individually placed between a pair of carbon electrodes in stimulation chambers (autoclaved before use). ET (V/cm) was measured by stimulating the tissue with square pulses of 2 ms pulse width at a frequency of 1 or 2 Hz and gradually increasing the output voltage of the stimulator until >80% of the tissue was beating synchronously with the stimulator output. MCR was measured by setting the output voltage at 12 V, and increasing frequency until >80% of the tissue was no longer synchronously beating with the driving signal. […]
A preliminary screen was also performed in order to determine the maturation effect of growth factors. […] The challenge with higher level functional readouts with in vitro models is that further analyses need to be done to determine the mode of action. In order to determine the mechanism of IGF1 and HRG, other functional parameters as well as molecular readouts over a time course will be investigated.

As for `CNC[C@H](O)c1ccc(O)c(O)c1` [Epinephrine], the AP activation rate result in the assay with cardiac microwire [1] (Epinephrine 0.1 μg/mL) is recorded as “increased the AP activation rate relative to the baseline”; in the assay with cardiac microwire [1] (Epinephrine 0.1 μg/mL, listed as epinephrine), “increased activation rate”. Further, in the assay with cardiac microwire [2] (Epinephrine 0.1 μg/mL supplemented after Verapamil 0.25 μg/mL), the “rate of calcium transients” value is given as “increased the rate of calcium transients”.
`CCN(CC)CC(=O)Nc1c(C)cccc1C` [Lidocaine]: the AP activation rate entry in the assay on cardiac microwire [1] (increasing concentrations of Lidocaine, 2 μg/mL and 4 μg/mL) was “reduced and nearly abolished activation; also recorded: decreased the activation rate”.
In the case of `CC(C)(C)c1ccc(C(O)CCCN2CCC(C(O)(c3ccccc3)c3ccccc3)CC2)cc1` (stereo not shown) [Terfenadine], in assay [3], the relative contractile force result is “reduce the contractile force (relative to control) with increasing concentrations”.
With `COc1ccc(CCN(C)CCCC(C#N)(c2ccc(OC)c(OC)c2)C(C)C)cc1OC` (stereo not shown) [Verapamil], the “amplitude of calcium waves” value in the assay on cardiac microwire [2] (Verapamil 0.25 μg/mL, relative to the baseline) was “reduced the amplitude of calcium waves”.
On to “IGF1: one of seven growth factors in a preliminary maturation screen”, for which, in assay [4], the “excitation threshold (ET)” value is recorded as “reduced ET compared to the control condition”.
